In ChEMBL document CHEMBL2218064, “Structure-activity relationship data for chemical series of antagonists of the P2X7 receptor (Supplementary Bioactivity Data for publication CHEMBL1157114)”:

Molecular target: T1, P2X purinoceptor 7 (Homo sapiens, UniProt Q99572)
T1 sequence (Q99572 whole entry): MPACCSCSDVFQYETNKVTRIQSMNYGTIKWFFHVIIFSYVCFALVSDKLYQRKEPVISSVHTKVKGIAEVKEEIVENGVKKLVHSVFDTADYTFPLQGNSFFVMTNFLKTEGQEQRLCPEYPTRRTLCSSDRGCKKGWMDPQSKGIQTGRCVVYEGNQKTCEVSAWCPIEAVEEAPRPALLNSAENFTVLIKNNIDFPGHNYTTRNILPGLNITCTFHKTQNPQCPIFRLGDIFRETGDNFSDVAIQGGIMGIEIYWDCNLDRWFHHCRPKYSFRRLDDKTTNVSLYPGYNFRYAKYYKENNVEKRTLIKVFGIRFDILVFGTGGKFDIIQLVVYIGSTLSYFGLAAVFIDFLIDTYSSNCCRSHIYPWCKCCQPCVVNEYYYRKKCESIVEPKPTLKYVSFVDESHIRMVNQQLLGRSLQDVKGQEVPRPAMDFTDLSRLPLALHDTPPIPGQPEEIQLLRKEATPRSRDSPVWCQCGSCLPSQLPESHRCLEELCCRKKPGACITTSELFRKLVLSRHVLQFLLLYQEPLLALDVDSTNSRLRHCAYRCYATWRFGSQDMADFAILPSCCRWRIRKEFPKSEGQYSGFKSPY
Assay: SUPPLEMENTARY: Inhibition of human P2X7 receptor assessed as inhibition of ethidium bromide accumulation. Same assay as CHEMBL1103860

IC50, 100 nM:
O=C(c1ccc(F)cc1Cl)N1CCn2c(nnc2-c2cccc(Cl)c2Cl)C1
CN1C(=O)N(c2nccc(C(F)(F)F)n2)C[C@H]1C(=O)NCc1ccc(F)cc1Cl
O=C(c1cccc(Cl)c1Cl)N1CCN(c2cccc(Cl)c2)C(=O)C1
O=C1C(=O)N(c2cccc(Cl)c2Cl)CCN1Cc1ccc(F)cc1Cl
Cc1nn(CCNCCO)c(C)c1CC(=O)NCc1ccc(F)cc1Cl

IC50, 20 nM:
CN(C)c1nnc2n1CCN(C(=O)c1cccc(C(F)(F)F)c1Cl)C2
CN1C(=O)NC[C@H]1C(=O)NCc1ccc(F)c(F)c1Cl
CC(C)N1C(=O)CC[C@H]1C(=O)NCc1cccc(Cl)c1Cl

IC50, 50.1 nM:
Cc1ccc(C(F)(F)F)cc1N1CCN(Cc2ccc(F)cc2Cl)C(=O)C1=O
CCN1C(=O)CC[C@H]1C(=O)NCc1c(C)cc(C)cc1C
CC(C)N1[C@H](C(=O)NCc2ccc(Cl)cc2Cl)CCS1(=O)=O

IC50, 15.8 nM:
CC(C)Oc1cc(F)ccc1N1CCN(C(=O)c2cccc(Cl)c2Cl)CC1=O
Cc1cccnc1N1C[C@@H](C(=O)NCc2ccc(Cl)cc2Cl)N(C)C1=O
CN1[C@H](C(=O)NCc2cccc(C(F)(F)F)c2Cl)CCS1(=O)=O
Cc1c(Cl)cccc1CNC(=O)[C@@H]1CCC(=O)N1C
Cc1nn(-c2ccc(C(=O)NCc3ccccn3)cc2)c(C)c1CC(=O)NCc1ccc(F)cc1Cl
O=C(c1ccc(F)cc1Cl)N1CCn2c(-c3ccccc3)cnc2C1

IC50, 0.794 nM:
Cc1cc(Cl)cc(Cl)c1CNC(=O)[C@@H]1CN(C)C(=O)N1C

IC50, 79.4 nM:
Cc1ccc(N2CCN(Cc3ccc(F)cc3Cl)C(=O)C2=O)c(C)c1
CCN1C(=O)CC[C@H]1C(=O)NCc1ccc(F)c(C(F)(F)F)c1

IC50, 251 nM:
Cc1ccc(-n2nc(C)c(CC(=O)NCc3ccc(F)cc3Cl)c2C)cn1
O=C1C(=O)N(c2cccc(N3CCOCC3)c2)CCN1Cc1ccc(F)cc1Cl
Cc1nn(-c2ccccc2)c(C)c1CC(=O)NCc1ccc(F)c(F)c1
CN1[C@H](C(=O)NCc2ccc(Cl)cc2Cl)CCCS1(=O)=O
Cc1ccccc1N1CCN(Cc2ccc(F)c(F)c2F)C(=O)C1=O
CNc1nnc2n1CCN(C(=O)c1cccc(C(F)(F)F)c1Cl)C2

IC50, 6.31 nM:
O=C(c1cccc(C(F)(F)F)c1Cl)N1CCn2c(-c3ccccc3)cnc2C1
Cc1c(Cl)cccc1CNC(=O)[C@@H]1CN(C)C(=O)N1C

IC50, 794 nM:
CN1[C@H](C(=O)NCc2ccccc2Cl)CCS1(=O)=O

IC50, 200 nM:
Cc1cc(-n2nc(C)c(CC(=O)NCc3ccc(F)cc3Cl)c2C)nc(C)n1

IC50, 10 nM:
O=C(c1cccc(C(F)(F)F)c1Cl)N1CCn2c(Br)cnc2C1

IC50, 1.58 nM:
O=C(c1ccc(F)c(Cl)c1Cl)N1CCn2c(nnc2-c2ccc(F)cn2)C1
O=C(c1cccc(C(F)(F)F)c1Cl)N1CCn2c(-c3ncccn3)cnc2C1
CN1C(=O)N(c2cccnc2Cl)C[C@H]1C(=O)NCc1cccc(C(F)(F)F)c1Cl
CN1C(=O)NC[C@H]1C(=O)NCc1c(Cl)cc(Cl)cc1Cl

IC50, 63.1 nM:
O=C(NCc1cccc(C(F)(F)F)c1Cl)[C@H]1CCC(=O)N1Cc1ccccn1

IC50, 39.8 nM:
CCN1C(=O)CC[C@H]1C(=O)NCc1ccc(F)cc1C(F)(F)F
Cc1c(N2CCOCC2)cccc1N1CCN(C(=O)c2c(Cl)cc(Cl)cc2Cl)CC1=O
O=C(c1ccc(F)cc1Cl)N1CCn2c(nnc2-c2cccc(F)c2F)C1
O=C(c1ccc(F)cc1Cl)N1CCN(c2ccccc2Cl)C(=O)C1
O=C(c1ccc(F)c(F)c1Cl)N1CCN(c2ccc(F)cc2Cl)C(=O)C1
Cc1cc(F)cc(C)c1N1CCN(Cc2ccc(F)cc2Cl)C(=O)C1=O
Cc1nn(CCNCC(C)C)c(C)c1CC(=O)NCc1ccc(F)cc1Cl
Cc1cccc(Cl)c1CNC(=O)Cc1c(C)nn(-c2ccccc2)c1C

IC50, 2 nM:
O=C(c1ccc(F)c(Cl)c1Cl)N1CCn2c(nnc2-c2cnccn2)C1
O=C(NCc1cccc(C(F)(F)F)c1Cl)[C@@H]1CCC(=O)N1C1CCC1

IC50, 3.98 nM:
O=C(c1cccc(C(F)(F)F)c1Cl)N1CCn2c(-c3ccc(F)cn3)cnc2C1
CN1C(=O)N(c2ncc(F)cn2)C[C@H]1C(=O)NCc1ccc(Cl)cc1Cl

IC50, 31.6 nM:
CN1C(=O)N(c2ccnc(F)c2)C[C@H]1C(=O)NCc1ccc(Cl)cc1Cl
O=C(c1cccc(C(F)(F)F)c1Cl)N1CCn2c(nnc2C2CC2)C1
Cc1ccccc1N1CCN(C(C)c2ccc(Cl)cc2Cl)C(=O)C1=O (stereo unspecified)
Cc1ccc(N2CCOCC2)cc1N1CCN(Cc2ccc(F)cc2Cl)C(=O)C1=O

IC50, 3.16 nM:
O=C(c1cccc(Cl)c1Cl)N1CCn2c(nnc2-c2ccc(F)cc2)C1

IC50, 158 nM:
C[C@H]1CN(Cc2ccc(Cl)cc2Cl)C(=O)C(=O)N1c1ccccc1
Cc1cccc(N2CCN(Cc3ccc(F)cc3Cl)C(=O)C2=O)c1F
Cc1cc(F)ccc1CN1CCN(c2ccccc2C)C(=O)C1=O
Cc1cccc(N2CCN(Cc3ccc(F)cc3Cl)C(=O)C2=O)c1
COc1ccccc1-c1nnc2n1CCN(C(=O)c1ccc(F)cc1Cl)C2
CN1CC(C(=O)NCc2ccc(Cl)cc2Cl)CC1=O (stereo unspecified)

IC50, 126 nM:
Cn1nccc1CC(=O)NCc1ccc(Cl)cc1Cl
O=C1C(=O)N(c2ccccc2F)CCN1Cc1ccc(F)cc1Cl

IC50, 316 nM:
Cc1nn(-c2ccccc2)c(C)c1CC(=O)NCc1ccc(F)c(C(F)(F)F)c1
CN1C(=O)c2ccccc2C1C(=O)NCc1ccc(F)cc1Cl (stereo unspecified)

IC50, 631 nM:
Cc1ccc(-n2nc(C)c(CC(=O)NCc3ccc(F)cc3Cl)c2C)nn1
Cc1ncccc1N1CCN(Cc2ccc(F)cc2Cl)C(=O)C1=O

IC50, 501 nM:
COc1ccccc1-n1nc(C)c(CC(=O)NCc2ccc(F)cc2Cl)c1C
CCN1[C@H](C(=O)NCc2ccccc2Cl)CCS1(=O)=O

IC50, 1000 nM:
Cc1ccccc1N1CCN(Cc2ccccc2F)C(=O)C1=O

IC50, 12.6 nM:
CN1C(=O)N(c2cccnc2)CC1C(=O)NCc1cccc(C(F)(F)F)c1Cl (stereo unspecified)
Cc1cc(F)cc(C)c1N1CCN(Cc2ccc(Cl)cc2Cl)C(=O)C1=O
CN1C(=O)CC[C@H]1C(=O)NCc1ccc(Cl)cc1Cl

IC50, 25.1 nM:
CCN1C(=O)CC[C@H]1C(=O)NCc1ccc(Cl)cc1C
COc1c(N2CCOCC2)cccc1N1CCN(Cc2ccc(F)cc2Cl)C(=O)C1=O
CCN1C(=O)C(C)(C)CC1C(=O)NCc1ccc(Cl)cc1Cl (stereo unspecified)

IC50, 398 nM:
Cc1nn(Cc2ccccn2)c(C)c1CC(=O)NCc1ccc(F)cc1Cl
Cc1nn(Cc2nc3ccccc3s2)c(C)c1CC(=O)NCc1ccc(F)cc1Cl
CCN1C(=O)CC[C@H]1C(=O)NCc1cccc(F)c1F
O=C1C(=O)N(c2ccccc2)CCN1Cc1ccc(F)cc1Cl
CCN1C(=O)c2ccccc2C1C(=O)NCc1ccc(Cl)cc1Cl (stereo unspecified)
O=C(c1c(Cl)cc(Cl)cc1Cl)N1CCn2c(Br)nnc2C1
CN1[C@H](C(=O)NCc2ccc(F)cc2C(F)(F)F)CCS1(=O)=O
